# Results published in patent US7468445B2, “Antigiardial agents and use thereof” (University of Mississippi, priority 2002, dated 2008).
# Tested on: Giardia intestinalis (ATCC #30888)
# Assay: Antigiardial biological screening (XTT tetrazolium dye procedure)
# Type: cell-based
# Details: Giardia duodenalis, ATCC30888; concentration that inhibits giardial growth by 50%, estimated graphically; samples at 10, 3.3 and 1.1 μg/mL, 24 h at 37° C., XTT; NA = inactive; read-out: IC50
# Method: Biological Screening. […] Subculturing was done every 48-72 h under a sterile biosafety hood. Tubes were chilled in an ice bath for 10 min. in order to detach the organisms, and 1 mL of cell suspension was added to 14 mL of fresh medium. To carry out the screening, a suspension of Giardia cells was prepared at a concentration of 100,000 cells/mL. 100 μL of the suspension was then added to each well of a Corning 96-well flat-bottomed tissue culture-treated plate. Blank wells received medium only. An additional 125 μL of medium was added to each well, and the plates were incubated at 37° C. for 24 h in an anaerobic chamber filled with nitrogen. […] The plates were further incubated at 37° C. for 24 h. The plates were then processed using a tetrazolium dye (XTT) procedure. Absorbance readings were taken at 450 nm with background at 630 nm subtracted.
row,Molecule,IC50 [µg/mL]
1,"O=c1c(-c2ccccc2)coc2c(Cl)c(O)ccc12 [P(A2,B1), 8-Chloro-7-hydroxy-3-phenylchromen-4-one]",1.7
2,"Cc1ncc([N+](=O)[O-])n1CCO [metronidazole, reference compound]",1.5

# Next, values leading:
row,IC50 [µg/mL],Molecule
1,1.6,"O=c1c(-c2ccccc2)coc2c(Br)c(O)ccc12 [P(A3,B1), 8-Bromo-7-hydroxy-3-phenylchromen-4-one]"
2,5,"O=c1c(-c2ccccc2)coc2cc(O)c(Br)cc12 [P(A6,B1), 6-Bromo-7-hydroxy-3-phenylchromen-4-one]"

# Same assay, conditions: concentration that inhibits giardial growth by 50%, estimated graphically; samples at 10, 3.3 and 1.1 μg/mL, 24 h at 37° C., XTT; NA = inactive
row,Molecule,IC50 [µg/mL]
1,"O=c1c(-c2ccccc2)coc2c(F)c(O)ccc12 [P(A1,B1)]",<1.1
2,"O=c1c(-c2ccc(Cl)cc2)coc2c(F)c(O)ccc12 [P(A1,B8)]",>10.0
3,"O=c1c(-c2ccc(F)cc2)coc2c(F)c(O)ccc12 [P(A1,B9)]",>10.0
4,"COc1ccc(-c2coc3c(F)c(O)ccc3c2=O)cc1 [P(A1,B11)]",<1.1
5,"O=c1c(-c2ccc(Br)cc2)coc2c(F)c(O)ccc12 [P(A1,B17)]",>10.0
6,"CCOc1ccc(-c2coc3c(F)c(O)ccc3c2=O)cc1 [P(A1,B18)]",8.8
7,"Cc1cccc(-c2coc3c(F)c(O)ccc3c2=O)c1 [P(A1,B19)]",<1.1
8,"Cc1ccc(-c2coc3c(F)c(O)ccc3c2=O)cc1 [P(A1,B20)]",<1.1
9,"O=c1c(-c2ccc(F)c(F)c2)coc2c(F)c(O)ccc12 [P(A1,B22)]",<1.1
10,"O=c1c(-c2cccc(Cl)c2)coc2c(F)c(O)ccc12 [P(A1,B27)]",<1.1
11,"O=c1c(-c2ccc(Cl)cc2)coc2c(Cl)c(O)ccc12 [P(A2,B8)]",4.5
12,"O=c1c(-c2ccc(F)cc2)coc2c(Cl)c(O)ccc12 [P(A2,B9)]",>10.0
13,"COc1ccc(-c2coc3c(Cl)c(O)ccc3c2=O)cc1 [P(A2,B11)]",>10.0
14,"O=c1c(-c2ccc(Br)cc2)coc2c(Cl)c(O)ccc12 [P(A2,B17)]",5.7
15,"CCOc1ccc(-c2coc3c(Cl)c(O)ccc3c2=O)cc1 [P(A2,B18)]",>10.0
16,"Cc1cccc(-c2coc3c(Cl)c(O)ccc3c2=O)c1 [P(A2,B19)]",>10.0
17,"Cc1ccc(-c2coc3c(Cl)c(O)ccc3c2=O)cc1 [P(A2,B20)]",>10.0
18,"O=c1c(-c2ccc(F)c(F)c2)coc2c(Cl)c(O)ccc12 [P(A2,B22)]",3.7
19,"O=c1c(-c2cc(F)cc(F)c2)coc2c(Cl)c(O)ccc12 [P(A2,B23)]",<1.1
20,"O=c1c(-c2cccc(Br)c2)coc2c(Cl)c(O)ccc12 [P(A2,B26)]",<1.1
21,"O=c1c(-c2cccc(Cl)c2)coc2c(Cl)c(O)ccc12 [P(A2,B27)]",1.7
22,"O=c1c(-c2cccc(F)c2)coc2c(Cl)c(O)ccc12 [P(A2,B28)]",5.2
23,"COc1cccc(-c2coc3c(Cl)c(O)ccc3c2=O)c1 [P(A2,B29)]",4.8

# Other lines, results leading:
row,IC50 [µg/mL],Molecule
1,1.9,"O=c1c(-c2ccc(Cl)cc2)coc2c(Br)c(O)ccc12 [P(A3,B8)]"
2,6.8,"O=c1c(-c2ccc(F)cc2)coc2c(Br)c(O)ccc12 [P(A3,B9)]"
3,9.3,"CCOc1ccc(-c2coc3c(Br)c(O)ccc3c2=O)cc1 [P(A3,B10)]"
4,<1.1,"COc1ccc(-c2coc3c(Br)c(O)ccc3c2=O)cc1 [P(A3,B11)]"
5,>10.0,"O=c1c(-c2ccc(Br)cc2)coc2c(Br)c(O)ccc12 [P(A3,B17)]"
6,<1.1,"Cc1cccc(-c2coc3c(Br)c(O)ccc3c2=O)c1 [P(A3,B19)]"
7,3.9,"Cc1ccc(-c2coc3c(Br)c(O)ccc3c2=O)cc1 [P(A3,B20)]"
8,1.9,"O=c1c(-c2cccc(Cl)c2)coc2c(Br)c(O)ccc12 [P(A3,B27)]"
9,<1.1,"O=c1c(-c2cccc(F)c2)coc2c(Br)c(O)ccc12 [P(A3,B28)]"
10,6.2,"O=c1c(-c2ccccc2)coc2cc(O)c(F)cc12 [P(A4,B1)]"
11,6.4,"O=c1c(-c2ccc(Cl)cc2)coc2cc(O)c(F)cc12 [P(A4,B8)]"
12,>10.0,"O=c1c(-c2ccc(F)cc2)coc2cc(O)c(F)cc12 [P(A4,B9)]"
13,>10.0,"COc1ccc(-c2coc3cc(O)c(F)cc3c2=O)cc1 [P(A4,B11)]"
14,9.0,"O=c1c(-c2ccc(Br)cc2)coc2cc(O)c(F)cc12 [P(A4,B17)]"
15,<1.1,"Cc1cccc(-c2coc3cc(O)c(F)cc3c2=O)c1 [P(A4,B19)]"
16,>10.0,"Cc1ccc(-c2coc3cc(O)c(F)cc3c2=O)cc1 [P(A4,B20)]"
17,>10.0,"O=c1c(-c2ccc(Cl)c(Cl)c2)coc2cc(O)c(F)cc12 [P(A4,B21)]"
18,9.4,"O=c1c(-c2ccc(F)c(F)c2)coc2cc(O)c(F)cc12 [P(A4,B22)]"
19,4.3,"O=c1c(-c2cccc(F)c2)coc2cc(O)c(F)cc12 [P(A4,B28)]"
20,>10.0,"O=c1c(-c2ccc(Br)cc2)coc2cc(O)c(Cl)cc12 [P(A5,B17)]"
21,2.5,"Cc1cccc(-c2coc3cc(O)c(Cl)cc3c2=O)c1 [P(A5,B19)]"
22,9.8,"O=c1c(-c2ccc(Cl)c(Cl)c2)coc2cc(O)c(Cl)cc12 [P(A5,B21)]"
23,6.7,"O=c1c(-c2cc(F)cc(F)c2)coc2cc(O)c(Cl)cc12 [P(A5,B23)]"
24,>10.0,"O=c1c(-c2cccc(Cl)c2)coc2cc(O)c(Cl)cc12 [P(A5,B27)]"
25,>10.0,"Cc1ccc(-c2coc3cc(O)c(Br)cc3c2=O)cc1 [P(A6,B20)]"
26,<1.1,"O=c1c(-c2cccc(F)c2)coc2cc(O)c(Br)cc12 [P(A6,B28)]"

# Same assay, conditions: discussion of the IC50 table
row,Molecule,antigiardial activity/potency in words (SAR discussion)
1,"COc1ccc(-c2coc3c(F)c(O)ccc3c2=O)cc1 [P(A1,B11)]",enhanced potency
2,"O=c1c(-c2ccc(-c3ccccc3)cc2)coc2c(F)c(O)ccc12 [P(A1,B16)]",less activity
3,"Cc1cccc(-c2coc3c(F)c(O)ccc3c2=O)c1 [P(A1,B19)]",enhanced potency
4,"COc1ccc(-c2coc3c(Br)c(O)ccc3c2=O)cc1 [P(A3,B11)]",enhanced potency
5,"Cc1cccc(-c2coc3c(Br)c(O)ccc3c2=O)c1 [P(A3,B19)]",enhanced potency
6,"O=c1c(-c2cccc(F)c2)coc2c(Br)c(O)ccc12 [P(A3,B28)]",enhanced potency
7,"O=c1c(-c2ccc(-c3ccccc3)cc2)coc2cc(O)c(F)cc12 [P(A4,B16)]",less activity
8,"Cc1cccc(-c2coc3cc(O)c(F)cc3c2=O)c1 [P(A4,B19)]",enhanced potency
9,"O=c1c(-c2ccc(-c3ccccc3)cc2)coc2cc(O)c(Cl)cc12 [P(A5,B16)]",less activity
10,"O=c1c(-c2ccc(-c3ccccc3)cc2)coc2cc(O)c(Br)cc12 [P(A6,B16)]",less activity
11,"O=c1c(-c2cccc(F)c2)coc2cc(O)c(Br)cc12 [P(A6,B28)]",enhanced potency

# Tested on: Giardia lamblia
# Assay: not given
# Details: biological evaluation of natural products; formononetin and pseudobaptigenin in vitro; cited from earlier work
row,Molecule,antigiardial activity
1,COc1ccc(-c2coc3cc(O)ccc3c2=O)cc1 [formononetin],potent antigiardial activity
2,O=c1c(O)c(-c2ccc(O)cc2)oc2cc(O)cc(O)c12 [kaempferol],exhibit antigiardial activity
3,O=c1c(-c2ccc3c(c2)OCO3)coc2cc(O)ccc12 [pseudobaptigenin],potent antigiardial activity
4,O=c1c(O)c(-c2ccc(O)c(O)c2)oc2cc(O)cc(O)c12 [quercetin],exhibit antigiardial activity
5,geranins A [geranin A],exhibit antigiardial activity

# Tested on: not given
# Assay: not given
# Details: not given
row,melting point,Molecule
1,242 to 244 °C,"O=c1c(-c2ccccc2)coc2c(Cl)c(O)ccc12 [P(A2,B1), 8-Chloro-7-hydroxy-3-phenylchromen-4-one]"
2,256 to 258 °C,"O=c1c(-c2ccccc2)coc2c(Br)c(O)ccc12 [P(A3,B1), 8-Bromo-7-hydroxy-3-phenylchromen-4-one]"
3,279 to 280 °C,"O=c1c(-c2ccccc2)coc2cc(O)c(Cl)cc12 [P(A5,B1), 6-Chloro-7-hydroxy-3-phenylchromen-4-one]"
4,296 to 297 °C (dec.),"O=c1c(-c2ccccc2)coc2cc(O)c(Br)cc12 [P(A6,B1), 6-Bromo-7-hydroxy-3-phenylchromen-4-one]"
